The text below walks through data of ChEMBL document CHEMBL5625219, “Design, synthesis fusidic acid derivatives alleviate acute lung injury via inhibiting MAPK/NF-κB/NLRP3 pathway” (Eur J Med Chem, 2023).

Activity calls are given as the source filed them. The rule behind the calls is not given here.

The test system of one series is RAW264.7. Kind of series: Cytotoxicity against mouse RAW264.7 cells assessed as reduction in cell viability at 30 uM incubated for 24 hrs by MTT assay relative to control. Format: toxicity, cell-based. The settings on record: raw264.7, 24 h.
A short description of series [1]: Cytotoxicity against mouse RAW264.7 cells assessed as inhibition of cell growth incubated for 24 hrs by MTT assay. Format: toxicity, cell-based. In general terms: Tetrazolium assays rely on reduction of a dye to a coloured formazan, in cell work by metabolically active cells.
Series [2] concerns Mus musculus. The series can be described thus: Anti-inflammatory activity in LPS-induced BALB/c mouse model of […] assessed as attenuation of inflammatory cell infiltration in lungs at 10 mg/kg, po preadministered with compound for 3 days followed by LPS stimulation for 6 hrs after 1 hrs compound administration on day 3 by H&E staining based analysis. The note with it: time 3.0 day. It is filed as functional, organism-based.

The test system of series [3] is Mus musculus. The series can be described thus: Anti-inflammatory activity in LPS-induced BALB/c mouse model of […] assessed as attenuation of lung alveolar hemorrhage at 10 mg/kg, po preadministered with compound for 3 days followed by LPS stimulation for 6 hrs after 1 hrs compound administration on day 3 by H&E staining based analysis. Format: functional, organism-based. The note with it: time 3.0 day.

For series [4], the system named is Mus musculus. Kind of series: Anti-inflammatory activity in LPS-induced BALB/c mouse model of […] assessed as inhibition of LPS-induced increase in lung W/D ratio at 10 mg/kg, po preadministered with compound for 3 days followed by LPS stimulation for 6 hrs after 1 hrs compound administration on day 3. The note with it: time 3.0 day. Format: functional, organism-based.

The subject of series [5] is Mus musculus. The series can be described thus: Anti-inflammatory activity in LPS-induced BALB/c mouse model of […] assessed as inhibition of LPS-induced increase in NO production in BALF at 10 mg/kg, po preadministered with compound for 3 days followed by LPS stimulation for 6 hrs after 1 hrs compound administration on day 3 by Griess reagent based method. The settings on record: time 3.0 day. Format: functional, organism-based.

Series [6] has as its system Mus musculus. The series can be described thus: Anti-inflammatory activity in LPS-induced BALB/c mouse model of […] assessed as inhibition of LPS-induced increase in IL-6 expression in BALF at 10 mg/kg, po preadministered with compound for 3 days followed by LPS stimulation for 6 hrs after 1 hrs compound administration on day 3 by ELISA. It is filed as functional, organism-based. The settings on record: time 3.0 day. A general note: In an ELISA, binding on a coated surface is turned into a signal by an enzyme label.

The test system of series [7] is Mus musculus. Kind of series: Anti-inflammatory activity in LPS-induced BALB/c mouse model of […] assessed as inhibition of LPS-induced increase in TNF-alpha expression in BALF at 10 mg/kg, po preadministered with compound for 3 days followed by LPS stimulation for 6 hrs after 1 hrs compound administration on day 3 by ELISA. Format: functional, organism-based. The note with it: time 3.0 day.

For series [8], the system named is Mus musculus. Kind of series: Anti-inflammatory activity in LPS-induced BALB/c mouse model of […] assessed as inhibition of LPS-induced increase in NO production in serum at 10 mg/kg, po preadministered with compound for 3 days followed by LPS stimulation for 6 hrs after 1 hrs compound administration on day 3 by Griess reagent based method. It is filed as functional, organism-based. The settings on record: time 3.0 day. In general terms: Griess reagent forms a coloured azo dye with nitrite.

The subject of series [9] is Mus musculus. The series can be described thus: Anti-inflammatory activity in LPS-induced BALB/c mouse model of […] assessed as inhibition of LPS-induced increase in IL-6 expression in serum at 10 mg/kg, po preadministered with compound for 3 days followed by LPS stimulation for 6 hrs after 1 hrs compound administration on day 3 by ELISA. Format: functional, organism-based. The settings on record: time 3.0 day.

For series [10], the system named is Mus musculus. Kind of series: Anti-inflammatory activity in LPS-induced BALB/c mouse model of […] assessed as inhibition of LPS-induced increase in TNF-alpha expression in serum at 10 mg/kg, po preadministered with compound for 3 days followed by LPS stimulation for 6 hrs after 1 hrs compound administration on day 3 by ELISA. Format: functional, organism-based. The note with it: time 3.0 day.

Series [11] has as its system Mus musculus. The series can be described thus: In vivo inhibition of NFkappaB activation in LPS-induced BALB/c mouse model of […] assessed as inhibition of NFkappaB degradation at 10 mg/kg, po preadministered with compound for 3 days followed by LPS stimulation for 6 hrs after 1 hrs compound administration on day 3 by Western blot analysis. It is filed as functional, organism-based. The note with it: time 3.0 day.

For series [12], the system named is Mus musculus. Kind of series: In vivo inhibition of NFkappaB activation in LPS-induced BALB/c mouse model of […] assessed as inhibition of IkappaBalpha degradation at 10 mg/kg, po preadministered with compound for 3 days followed by LPS stimulation for 6 hrs after 1 hrs compound administration on day 3 by Western blot analysis. The settings on record: time 3.0 day. It is filed as functional, organism-based.

With `CC(=O)O[C@H]1C[C@@]2(C)[C@@H](C[C@@H](O)[C@H]3[C@@]4(C)CC[C@@H](O)[C@@H](C)[C@@H]4CC[C@@]32C)/C1=C(\CCC=C(C)C)C(=O)O` [FUSIDIC ACID], in the series with RAW264.7, the Activity is given as 101.08%. In addition, the IC50 at 24 h in series [1] came to 61.3 µM. The outcome in the series with Mus musculus [2], with Mus musculus [3], in the series with Mus musculus [4], with Mus musculus [5], in the series with Mus musculus [6] and with Mus musculus [7] was Active. Further, the result in the series on Mus musculus [8], in the series on Mus musculus [9] and in the series on Mus musculus [10] was Active. For the same compound, the inhibition result with Mus musculus [11] and in the series on Mus musculus [12] was “Active” each time.
Turning to `Cc1ccc(-c2cc(C(F)(F)F)nn2-c2ccc(S(N)(=O)=O)cc2)cc1`, the result in the series with Mus musculus [2], with Mus musculus [3], in the series with Mus musculus [4], in the series on Mus musculus [5], with Mus musculus [6] and in the series on Mus musculus [7] was Active. The outcome in the series on Mus musculus [8], in the series with Mus musculus [9] and in the series on Mus musculus [10] was Active. In addition, the inhibition result in the series with Mus musculus [11] and in the series with Mus musculus [12] was “Active” in each case.
Take `COc1cc(-c2nnc(COC(=O)/C(CCC=C(C)C)=C3\[C@@H](OC(C)=O)C[C@@]4(C)[C@H]3C[C@@H](O)[C@H]3[C@@]5(C)CC[C@@H](O)[C@@H](C)[C@@H]5CC[C@@]34C)o2)cc(OC)c1OC`: the Activity in the series on RAW264.7 was 97.84%. Moreover, the IC50 at 24 h in series [1] was 129 µM.

The term IC50 denotes the midpoint of a concentration-inhibition curve.
